Patent US20260083743A1, “NUCLEOSIDE DERIVATIVE FOR PREVENTING AND TREATING INFLAMMATION AND APPLICATION THEREOF” (WEST CHINA HOSPITAL OF SICHUAN UNIVERSITY, priority 2019, published 2026)

Tests used:
C57 mice = assay: Toxicity test, 180 consecutive days by gavage in C57 mice; format: in vivo; settings: 100 mg/kg/D for 180 consecutive days by gavage
Protocol: In this example, the toxicities of compounds 1-19 prepared in example 1 were analyzed.
C57 mice were given compounds 1-19 at a dose of 100 mg/kg/D for 180 consecutive days by gavage. One hour after the last administration of the drug, the mice were anesthetized by intraperitoneal injection of sodium pentobarbital (40 mg/kg), placed on a constant temperature hot plate at 37±1° C., blood was taken by cardiac puncture or pathological sections were made to detect the side effects (gastrointestinal reaction, nervous system toxicity, hematological toxicity, allergic reaction, nephrotoxicity, hepatotoxicity, rash and asthma) The side effects of aspirin, ibuprofen, indomethacin, phenylbutazone, diclofenac, piroxicam and glucocorticoid groups were investigated according to the same administration method as compounds 1-19.

[1] = system: sodium taurocholate-induced pancreatitis model; assay: Improvement effect on pancreatitis, sodium taurocholate-induced model in mice; format: in vivo, Blab/c mice; parameters: Pancreatic histopathological injury score: scale not given here; settings: 17.5 mg/kg caudal vein 1 h, 3 h and 6 h after model construction; after 24 hours; n = 10
Excerpt: In this example, the improvement effect of compounds 1 19 prepared in example 1 on […] measured. (1) Animals: Adult and Healthy Male Blab/c Mice, 25 30 g. […] A model was made with sodium taurocholate. […] After anesthesia, the surgical site was sterilized with an alcohol cotton ball. The sterile gauze was placed on the surgical site. A laparotomy was made at the width of two fingers under the xiphoid process. After seeing the liver, an incision was made, the cotton swab soaked in normal saline was stretched into the enterocoelia, the duodenum was sought on the back of the liver, turned out and placed on the sterile gauze, the pancreaticobiliary duct and duodenal papilla were sought, and the needle of 1 mL syringe was used to pierce a hole on the along the direction of the nipple, a 24 G indwelling needle tube was inserted into the pancreatic duct along the nipple, and the common bile duct below the liver was closed with an arterial vascular clip, with a dose of 0.1 mL/100 g and 0.1 mL/min inject sodium taurocholate with a concentration of 3.8% at a flow rate. During this process, pay attention to adding saline to the exposed pancreas and duodenum to keep it moist. After the injection, the tube was slowly taken out and the bile duct was continued to be closed. The main tube was removed from the vascular artery clip 3 minutes later, the duodenum was also accommodated, and the abdominal cavity was sutured in double layers. The blank control group was injected with equal volume of isotonic saline. […] The blank control group and the model control group were given equal volume of isotonic saline. After 24 hours, pancreatic tissue and blood samples were taken, and the pancreatic histopathological injury score and the level of pancreatic amylase in serum were evaluated.

arthritis model = assay: Improvement effect on arthritis, sodium iodoacetate knee joint model in SD rats; format: in vivo; parameters: Pathological tissue score (joint): scale not given here; settings: gavage every day 100 mg/kg/d; 4th week after operation; n = 10
Protocol: In this example, the improvement effect of compounds 1˜19 prepared in example 1 on arthritic was measured. (1) Animals: SD rats, four rates in one cage, were fed under the conditions of constant temperature (25±2° C.) and illumination control (12 h day/night circulation). The animals were fed with standard feed, and fed for at least 7 days to adapt environment before the experiment. […] (3) SD rats were fasted for 12 hours before operation, and weighed and recorded prior to operation. The blank control group was not treated any more. […] After anesthesia, they were fixed in the supine position. 0.1 ml of 1 g/L sodium iodoacetate solution was injected into the knee joint. From the fifth day, the animals were driven to run for 30 minutes every day, and they were allowed to move freely in the cage the rest of the time. After modeling, indomethacin and compounds 1˜19 were given by gavage every day at the dose of 100 mg/kg/d. The blank control group and the model control group were given equal volume of isotonic saline. At the 4th week after operation, the articular fluid of rats in each group was extracted to measure the content of MMP-13. The rats were killed, and the subchondral bone plate of the inner condyle of the tibia of the right knee was cut and processed into specimens, and pathological scores were made.

mouse hepatitis model = assay: Improvement effect on hepatitis, concanavalin A (ConA) mouse hepatitis model; format: in vivo, Blab/c mice; settings: gavage 50 mg/kg, n = 10
Protocol: In this example, the improvement effect of compounds 1 19 prepared in example 1 on […] measured. (1) Animals: Adult and Healthy Male Blab/c Mice, 25 30 g. […] The blank control group was injected with equal volume of isotonic saline. After modeling, indomethacin and compounds 1 19 were given by gavage every day at the dose of 50 mg/kg. The blank control group and the model control group were given equal volume of isotonic saline. Eyeball blood and liver tissue were taken at 6 h, 12 h, 24 h and 48 h after administration. The levels of serum alanine aminotransferase (ALT) and aspartate aminotransferase (AST) were measured.

## CC(=O)Oc1ccccc1C(=O)O [Aspirin, aspirin]
C57 mice
  Occurrence rate of side effects: 20%

## O=C(O)Cc1ccccc1Nc1c(Cl)cccc1Cl [Diclofenac, diclofenac]
C57 mice
  Occurrence rate of side effects: 20%

## CCCCC1C(=O)N(c2ccccc2)N(c2ccccc2)C1=O [Baotaisong, phenylbutazone]
C57 mice
  Occurrence rate of side effects: 20%

## CC(C)Cc1ccc(C(C)C(=O)O)cc1 (stereo not shown) [Ibuprofen, ibuprofen]
C57 mice
  Occurrence rate of side effects: 20%

## CCC(=O)CCn1c(=O)c2c(ncn2C)n(C)c1=O [Compound 16, 1-(2-propionylethyl)-3,7-dimethylxanthine]
[1]
  Amylopsin (pancreatic amylase level in serum): 5 ± 2 KU/L
  Pancreatic histopathological injury score: 1.8 ± 0.3
Arthritis model
  MMP-13 content in joint fluid: 93 ± 9 mg/L
  Pathological tissue score (joint): 0.4 ± 0.3
Mouse hepatitis model; 6 h after administration
  Aspartate aminotransferase (AST): 59 ± 7 U/L
  Serum alanine aminotransferase (ALT): 61 ± 8 U/L
Mouse hepatitis model; 12 h after administration
  Aspartate aminotransferase (AST): 93 ± 11 U/L
  Serum alanine aminotransferase (ALT): 101 ± 16 U/L
Mouse hepatitis model; 24 h after administration
  Aspartate aminotransferase (AST): 121 ± 12 U/L
  Serum alanine aminotransferase (ALT): 132 ± 12 U/L
Mouse hepatitis model; 48 h after administration
  Aspartate aminotransferase (AST): 103 ± 9 U/L
  Serum alanine aminotransferase (ALT): 104 ± 13 U/L

## CCNCCn1c(=O)c2c(ncn2C)n(C)c1=O [Compound 12, 1-(2-ethylaminoethyl)-3,7-dimethylxanthine]
[1]
  Amylopsin (pancreatic amylase level in serum): 4 ± 2 KU/L
  Pancreatic histopathological injury score: 0.4 ± 0.5
Arthritis model
  MMP-13 content in joint fluid: 83 ± 8 mg/L
  Pathological tissue score (joint): 0.3 ± 0.4
Mouse hepatitis model; 6 h after administration
  Aspartate aminotransferase (AST): 58 ± 7 U/L
  Serum alanine aminotransferase (ALT): 76 ± 8 U/L
Mouse hepatitis model; 12 h after administration
  Aspartate aminotransferase (AST): 93 ± 9 U/L
  Serum alanine aminotransferase (ALT): 113 ± 12 U/L
Mouse hepatitis model; 24 h after administration
  Aspartate aminotransferase (AST): 121 ± 19 U/L
  Serum alanine aminotransferase (ALT): 162 ± 16 U/L
Mouse hepatitis model; 48 h after administration
  Aspartate aminotransferase (AST): 102 ± 9 U/L
  Serum alanine aminotransferase (ALT): 121 ± 13 U/L

## CC(=O)CCn1c(=O)c2c(ncn2C)n(C)c1=O [Compound 15, 1-(2-acetylethyl)-3,7-dimethylxanthine]
[1]
  Amylopsin (pancreatic amylase level in serum): 5 ± 4 KU/L
  Pancreatic histopathological injury score: 1.6 ± 0.4
Arthritis model
  MMP-13 content in joint fluid: 91 ± 7 mg/L
  Pathological tissue score (joint): 0.6 ± 0.5
Mouse hepatitis model; 6 h after administration
  Aspartate aminotransferase (AST): 65 ± 7 U/L
  Serum alanine aminotransferase (ALT): 65 ± 8 U/L
Mouse hepatitis model; 12 h after administration
  Aspartate aminotransferase (AST): 118 ± 18 U/L
  Serum alanine aminotransferase (ALT): 171 ± 15 U/L
Mouse hepatitis model; 24 h after administration
  Aspartate aminotransferase (AST): 198 ± 18 U/L
  Serum alanine aminotransferase (ALT): 218 ± 26 U/L
Mouse hepatitis model; 48 h after administration
  Aspartate aminotransferase (AST): 129 ± 9 U/L
  Serum alanine aminotransferase (ALT): 132 ± 12 U/L

## CC(C)NCCn1c(=O)c2c(ncn2C)n(C)c1=O [Compound 13, 1-(2-isopropylaminoethyl)-3,7-dimethylxanthine]
[1]
  Amylopsin (pancreatic amylase level in serum): 6 ± 2 KU/L
  Pancreatic histopathological injury score: 1.8 ± 0.2
Arthritis model
  MMP-13 content in joint fluid: 98 ± 5 mg/L
  Pathological tissue score (joint): 0.3 ± 0.5
Mouse hepatitis model; 6 h after administration
  Aspartate aminotransferase (AST): 63 ± 7 U/L
  Serum alanine aminotransferase (ALT): 87 ± 9 U/L
Mouse hepatitis model; 12 h after administration
  Aspartate aminotransferase (AST): 102 ± 12 U/L
  Serum alanine aminotransferase (ALT): 121 ± 13 U/L
Mouse hepatitis model; 24 h after administration
  Aspartate aminotransferase (AST): 132 ± 13 U/L
  Serum alanine aminotransferase (ALT): 172 ± 17 U/L
Mouse hepatitis model; 48 h after administration
  Aspartate aminotransferase (AST): 93 ± 9 U/L
  Serum alanine aminotransferase (ALT): 143 ± 12 U/L

## CCCNCCn1c(=O)c2c(ncn2C)n(C)c1=O [Compound 14, 1-(2-propylaminoethyl)-3,7-dimethylxanthine]
[1]
  Amylopsin (pancreatic amylase level in serum): 5 ± 3 KU/L
  Pancreatic histopathological injury score: 1.9 ± 0.4
Arthritis model
  MMP-13 content in joint fluid: 93 ± 7 mg/L
  Pathological tissue score (joint): 0.7 ± 0.3
Mouse hepatitis model; 6 h after administration
  Aspartate aminotransferase (AST): 65 ± 7 U/L
  Serum alanine aminotransferase (ALT): 56 ± 8 U/L
Mouse hepatitis model; 12 h after administration
  Aspartate aminotransferase (AST): 93 ± 12 U/L
  Serum alanine aminotransferase (ALT): 134 ± 15 U/L
Mouse hepatitis model; 24 h after administration
  Aspartate aminotransferase (AST): 152 ± 15 U/L
  Serum alanine aminotransferase (ALT): 193 ± 12 U/L
Mouse hepatitis model; 48 h after administration
  Aspartate aminotransferase (AST): 119 ± 12 U/L
  Serum alanine aminotransferase (ALT): 132 ± 13 U/L

## Cn1c(=O)c2c(ncn2C)n(C)c1=O [Caffeine, caffeine, reference compound]
[1]
  Amylopsin (pancreatic amylase level in serum): 16 ± 2 KU/L
  Pancreatic histopathological injury score: 2.6 ± 0.4
Arthritis model
  MMP-13 content in joint fluid: 59 ± 8 mg/L
  Pathological tissue score (joint): 2.6 ± 0.4
Mouse hepatitis model; 6 h after administration
  Aspartate aminotransferase (AST): 260 ± 31 U/L
  Serum alanine aminotransferase (ALT): 590 ± 54 U/L
Mouse hepatitis model; 12 h after administration
  Aspartate aminotransferase (AST): 860 ± 91 U/L
  Serum alanine aminotransferase (ALT): 1456 ± 132 U/L
Mouse hepatitis model; 24 h after administration
  Serum alanine aminotransferase (ALT): 2632 ± 321 U/L
Mouse hepatitis model; 48 h after administration
  Aspartate aminotransferase (AST): 943 ± 91 U/L
  Serum alanine aminotransferase (ALT): 1432 ± 152 U/L

## CN1C(C(=O)Nc2ccccn2)=C(O)c2ccccc2S1(=O)=O [Piroxicam, piroxicam]
C57 mice
  Occurrence rate of side effects: 20%

## CNCCn1c(=O)c2c(ncn2C)n(C)c1=O [Compound 11, 1-(2-methylaminoethyl)-3,7-dimethylxanthine]
[1]
  Amylopsin (pancreatic amylase level in serum): 5 ± 3 KU/L
  Pancreatic histopathological injury score: 0.5 ± 0.2
Arthritis model
  MMP-13 content in joint fluid: 86 ± 5 mg/L
  Pathological tissue score (joint): 0.3 ± 0.3
Mouse hepatitis model; 6 h after administration
  Aspartate aminotransferase (AST): 48 ± 7 U/L
  Serum alanine aminotransferase (ALT): 54 ± 6 U/L
Mouse hepatitis model; 12 h after administration
  Aspartate aminotransferase (AST): 89 ± 8 U/L
  Serum alanine aminotransferase (ALT): 92 ± 9 U/L
Mouse hepatitis model; 24 h after administration
  Aspartate aminotransferase (AST): 112 ± 12 U/L
  Serum alanine aminotransferase (ALT): 142 ± 14 U/L
Mouse hepatitis model; 48 h after administration
  Aspartate aminotransferase (AST): 95 ± 9 U/L
  Serum alanine aminotransferase (ALT): 110 ± 13 U/L

## CCCC(=O)CCn1c(=O)c2c(ncn2C)n(C)c1=O [Compound 18, 1-(2-butyrylethyl)-3,7-dimethylxanthine]
[1]
  Amylopsin (pancreatic amylase level in serum): 9 ± 2 KU/L
  Pancreatic histopathological injury score: 1.3 ± 0.4
Arthritis model
  MMP-13 content in joint fluid: 91 ± 8 mg/L
  Pathological tissue score (joint): 0.5 ± 0.3
Mouse hepatitis model; 6 h after administration
  Aspartate aminotransferase (AST): 54 ± 7 U/L
  Serum alanine aminotransferase (ALT): 67 ± 8 U/L
Mouse hepatitis model; 12 h after administration
  Aspartate aminotransferase (AST): 98 ± 8 U/L
  Serum alanine aminotransferase (ALT): 106 ± 11 U/L
Mouse hepatitis model; 24 h after administration
  Aspartate aminotransferase (AST): 131 ± 8 U/L
  Serum alanine aminotransferase (ALT): 157 ± 15 U/L
Mouse hepatitis model; 48 h after administration
  Aspartate aminotransferase (AST): 117 ± 9 U/L
  Serum alanine aminotransferase (ALT): 121 ± 13 U/L

## CC(C)C(=O)OCCn1c(=O)c2c(ncn2C)n(C)c1=O [Compound 10, 1-(isopropyl acid-2-ethyl)-3,7-dimethylxanthine]
[1]
  Amylopsin (pancreatic amylase level in serum): 7 ± 5 KU/L
  Pancreatic histopathological injury score: 0.6 ± 0.4
Arthritis model
  MMP-13 content in joint fluid: 91 ± 8 mg/L
  Pathological tissue score (joint): 0.7 ± 0.4
Mouse hepatitis model; 6 h after administration
  Aspartate aminotransferase (AST): 87 ± 9 U/L
  Serum alanine aminotransferase (ALT): 83 ± 8 U/L
Mouse hepatitis model; 12 h after administration
  Aspartate aminotransferase (AST): 167 ± 19 U/L
  Serum alanine aminotransferase (ALT): 132 ± 13 U/L
Mouse hepatitis model; 24 h after administration
  Aspartate aminotransferase (AST): 189 ± 15 U/L
  Serum alanine aminotransferase (ALT): 186 ± 19 U/L
Mouse hepatitis model; 48 h after administration
  Aspartate aminotransferase (AST): 176 ± 17 U/L
  Serum alanine aminotransferase (ALT): 154 ± 17 U/L
